Data from a melting point compilation (Tetko et al.; mined from patent text by program, amines drawn as free bases though some values may be those of a salt).

melting point [°C]	SMILES
156 to 160	COc1cc(C)c(C(=O)c2c(Cl)cccc2Cl)cc1[N+](=O)[O-]
> 245	CCOc1ccc(NC=C(C#N)C(=O)Nc2cc(OC)c(Cl)cc2Cl)cc1I
93 to 96	COC(=O)c1ccc(SC#N)c([N+](=O)[O-])c1
300 to 301	O=c1c2ccc(O)c(O)c2oc2cccc(O)c12
82 to 83	CCOC(=O)C=C(NNc1c(C)cc(C)c([N+](=O)[O-])c1C)OC
86 to 88	CC(C)(C)OC(=O)NCCCCCCC(=O)Nc1ccc(-n2nc(C(F)(F)F)cc2C(F)(F)F)cc1
141 to 143	COCc1cc(Oc2c(Cl)cc(C(F)(F)F)cc2Cl)n[nH]1
169 to 172	O=c1c2c(Br)cc(Br)cc2n(Cc2ccccc2)c(=O)n1Cc1ccccc1
154 to 156	O=C(O)C=Cc1cc(OCc2ccccc2)cc(OCc2ccccc2)c1
100	CS(=O)(=O)c1ccc(C(O)c2ccc3ccccc3c2)cc1 (stereo not drawn)
142	COc1cc(-c2nc(C(C)C)no2)cc2oc(=O)c(C)c(C)c12
51	O=C1C(c2ccccc2)=C(c2cccc(Cl)c2)C(=O)N1c1ccc(Cl)cc1
120 to 122	CN(CCc1ccccc1)C(=O)Cn1cc(C=O)c2c(OCc3ccccc3)cccc21
153 to 156	CC1(C)C(c2cccs2)=NN=C1c1cccs1
168 to 170	Nc1csc(-c2cc3c(Oc4ccc(Cl)cc4)cncc3s2)n1
280 to 283	c1cc(-c2ccc(N3CCNCC3)nc2)nc(Nc2ccc3[nH]nnc3c2)n1
148 to 151	COc1cc(Nc2nc3ccnc(-c4ccc(N)cc4)c3o2)cc(OC)c1OC

melting point [°C]	SMILES
140 to 146	O=C(C=C(c1cc(Cl)cc(Cl)c1)C(F)(F)F)c1ccc(C(=O)NC2CCCO2)cc1 (stereo not drawn)
196 to 198	CCNC(=O)N1CCN(c2ccccc2C(C)(C)C)CC1
122 to 125	COc1ccc(N2CCN(c3c(C)c(C)c4c(c3C)C(O)(c3cccc(C)c3)C(C)(C)O4)CC2)cc1 (stereo not drawn)
270 to 271	Cc1nc(-c2ccccc2)nc(-c2ccncc2)c1C(=O)O
70 to 72	CCCCCCCCCCCCC1=C(OC(=O)OC)C(=O)c2ccccc2C1=O
129	COC1=C(c2cccc(C(F)(F)F)c2)C(=O)N(C(C)(C)C)C1
116 to 118	O=C1N(Cc2ccc(C(F)(F)F)o2)c2c(F)cccc2C12COc1cc3c(cc12)OCO3 (stereo not drawn)
150	Cc1ccc(C(N)(c2ccc3c(c2)c(-c2cccc(Cl)c2)nc2nnnn23)c2cncn2C)cc1 (stereo not drawn)
252 to 253	CNC(=O)c1ccccc1NC(=O)COc1ccc(C(C)=O)cc1
170 to 171	COc1cccc2c(=O)c(C)c3sc4ccccc4nc-3c12
222 to 224	Oc1ccc(-c2nc(-c3ccc(Br)cc3)nc(-c3ccc(O)cc3O)n2)c(O)c1
235 to 236	NN=C1C(=O)Nc2cccc(Cl)c21
151 to 152	CCCCN1Cc2[nH]c3ccccc3c2C1
82 to 83	CCOC(=O)c1ccc(/C=C(\CC)c2ccc3c(c2)C(C)(C)CCC3(C)C)cc1
347 to 349	O=c1[nH]c(Nc2cccc(C(F)(F)F)c2)nc2c1ncn2CCO
178 to 182	CCCc1c(OCCCCCOc2ccc(C(=O)Cc3ccccc3C(=O)O)cc2CCC(=O)O)ccc2c1OCCC2=O

The remaining lines, values behind:

SMILES	melting point [°C]
Oc1cncc(Cl)c1CCCOc1cccnc1Oc1cccc(Cl)c1	95 to 96
Cc1cn(C(C)C(=O)N(C)C)nc1-c1ccccc1 (stereo not drawn)	87 to 89
O=C(CI)CCc1ccccc1	44 to 45
COC(=O)C(C(=O)OC)c1cccc2c1NC(=O)C2	161 to 162
S=c1[nH]c2cc(Cl)cc(OCCNCc3ccccc3)c2[nH]1	> 250
Cn1nc(-c2ccc(Cl)cc2)nc1-c1ccncc1	191
COC1CCC2(C)C(=CC(=O)C3C4CCC(=O)C4(C)CCC32)C1 (stereo not drawn)	227 to 229
CCc1cn2ccc(NC(=O)c3cc4cc(C(F)(F)F)cnc4n3Cc3cccc(F)c3)cc2n1	264 to 265
Cc1ncc(N)cc1Nc1nccc(-c2cccnc2)n1	135
CCCCOC(=O)c1ccc(CN2CCCN3CCCC32)cc1 (stereo not drawn)	64 to 67
CCOc1cc(F)ccc1-c1noc2c(Cl)c(OC)ccc12	150 to 152
CCc1cc(C(=O)c2ccccc2Cl)c(NC)s1	100 to 102
NS(=O)(=O)c1cnc(-c2cn(-c3cc(-c4ccc(Cl)cc4)cc(C(F)(F)F)n3)cn2)s1	263
CC1(CO)Cc2c(cc(C(C)(C)C)c(O)c2C(C)(C)C)O1 (stereo not drawn)	126 to 128
Cc1nc2c(C#N)cnn2c(Cl)c1CCCl	143 to 145
O=C(Nc1ccc(C2(F)CCN(C(=O)OCc3ccccc3)CC2)c(F)c1)OCc1ccccc1	116 to 118
O=S(=O)(C(=CNc1nccs1)S(=O)(=O)c1ccccc1)c1ccccc1	189 to 191
CCC(C)OC(=O)C(C(=O)Nc1nc(C)cs1)=C1SCS1 (stereo not drawn)	153 to 154
Nc1cccc(/C=C/c2nc(C3CCCC3)cs2)c1	59 to 61
N#Cc1ccccc1N1CCN(Cc2cn3cc(Cl)ccc3n2)CC1	167 to 169
COC(=O)c1ccc(Cn2nc(Br)c3ccc(C(=O)NCC4CCCC4)cc32)c(OC)c1	161 to 162
NC(=O)c1occc1C(=O)NC1CCN(Cc2ccc3ccccc3c2)CC1	157 to 159

SMILES	melting point [°C]
Cc1cc2n(C)c3cc(Cl)ncc3c(=O)n2n1	> 300
COCc1c(CNS(=O)(=O)c2cccc(Cl)c2)nn(-c2ccc(Cl)cc2Cl)c1-c1ccc(Cl)cc1	154
CC(C)n1nc(-c2c(NCC(N)=O)nc(N)nc2-c2ccccc2)ccc1=O	235 to 238
CC(=O)c1ccc2c(c1)Cc1ccccc1O2	103 to 104
CN(C)c1ccc(NC(=O)[C@@H](Cc2ccccc2)NC(=O)CCC(=O)O)cc1	197 to 198
O=C(O)C(c1ccc(Cl)cc1)c1c(Cl)cc(-n2ncc(=O)[nH]c2=O)cc1Cl (stereo not drawn)	220
CCn1c(C)c(C(=O)c2ccccc2C(=O)O)c2ccccc21	184 to 185
Cn1ncnc1COc1nn2c(-c3ccccc3F)nncc2c1-c1c(F)cccc1F	196
CC1CC(=O)NN=C1c1ccc2c(c1)N=CS2=O (stereo not drawn)	317 to 319
COC(=O)NC1CCc2sc(Cl)cc2C1 (stereo not drawn)	120 to 121
Cc1nc2cccc(S(=O)(=O)n3c(COC(C)(C)C(=O)O)cc4cc(C(F)(F)F)ccc43)c2s1	98 to 100
C=Cc1c(F)c(N2CC3CN(C)CC3C2)c(F)c2c1c(=O)c(C(=O)O)cn2C1CC1 (stereo not drawn)	156 to 157
ClC1(c2ccccc2)c2ccccc2-c2ncncc21 (stereo not drawn)	119 to 120
CCCCS(=O)(=O)c1ccc(NN)cc1	138
O=C(O)C1C=CCn2c(=O)n(CO)c(=O)n21 (stereo not drawn)	175 to 178
O=C(O)CCCOc1ccccc1OCCC(c1ccccc1)(c1ccccc1)c1ccccc1	107 to 108
O=C1Nc2cc(Cl)ccc2C1c1ncnc2c1cnn2C1CCCC1 (stereo not drawn)	288 to 291
CC1(c2ccc(C(O)C(C)(C)C)cc2)OCCO1 (stereo not drawn)	75 to 80
CC(C)c1ccc(C(=O)Cl)cc1S(N)(=O)=O	177
CCc1ccccc1-c1cn(C)cc(-c2cccc(C(F)(F)F)c2)c1=O	123 to 125
COc1cc2c(cc1OC)CC(=S)N(CCCN(C)C1CCc3cc(OC)c(OC)cc3C1)CC2 (stereo not drawn)	70 to 75
CS(=O)(=O)c1ccc(-c2cnn(-c3ccc(F)cc3)c(=O)c2Cc2cccc(F)c2)cc1	176 to 178

SMILES	melting point [°C]
COC(=O)C(Cc1cc(OC)cc(OC)c1)c1ccc(Oc2ccc(C=C3SC(=O)NC3=O)cc2)cc1 (stereo not drawn)	104 to 106
O=C(CNC(=O)c1ccncc1)NC1CCN(CCc2c[nH]c3ccccc23)CC1	211 to 215
COc1cc2ncc(C#N)c(Nc3ccc(Cl)c(C(F)(F)F)c3)c2cc1OC	265 to 267
COc1ccc(C(=O)N(C)CC(O)COc2cccc3[nH]c4ccccc4c23)cc1OC (stereo not drawn)	77 to 80
Cc1ccc2c(c1)C(C(=O)Nc1ccccc1C(C)C)c1ccccc1CO2 (stereo not drawn)	180 to 181
COc1ccc2c(c1)C(CCCN1C(=O)c3ccccc3C1=O)=CCO2	78 to 80
N#Cc1c(C(F)(F)F)nn(-c2c(Cl)cc(C(F)(F)F)cc2Cl)c1C(F)(F)F	88 to 92
CCC1(O)CC2CC[C@]1(CS(=O)(=O)N1CCC3(C=Cc4ccccc43)CC1)C2(C)C (stereo partly drawn)	171 to 173
CCCn1c(=O)n2cnnc2c2c1ncn2C	218
Cc1noc(NS(=O)(=O)c2ccc(Cl)c(Cl)c2)c1Br	144 to 146
CN(CCCCNC(=NCCCOc1cccc(CN2CCCCC2)c1)NC#N)CCN(Cc1ccc(F)cc1)c1ccccn1	84 to 86
CCOCc1nc2cnc3cc(Br)cnc3c2n1CC(C)(C)F	127 to 128
FCc1cc(-c2nnc3c4ccccc4c(OCc4nc[nH]n4)nn23)no1	266 to 268
O=C1C(=O)c2c(nc3ccc(Cl)cn23)-c2cccc(Cl)c21	> 260
Cc1cccc(NC(=O)N[C@H]2C[C@@](N)(C(=O)O)[C@@H]3[C@@H](C(=O)O)[C@@H]32)c1 (relative stereo)	> 250
CCC(NS(C)(=O)=O)c1ccc(Cl)c2nc3n(c12)CCCN3c1ccc(Cl)cc1Cl (stereo not drawn)	125 to 126
N#Cc1ccc(-c2ccccc2)c(NC(=O)Nc2cccnc2)c1	180 to 182
Cc1c(Cl)c(C(=O)O)cc([N+](=O)[O-])c1Cl	152 to 154
Cc1ccccc1-c1c(C(=O)O)c(=O)oc2cc3c(cc12)CCCC3	216 to 217
Nc1ccn2nc(N3CCCC3)nc2c1	221 to 225
Nc1nc(F)cc(CF)n1	189 to 190
